Test results reported in publication PMC10223284, “Category-Based Toxicokinetic Evaluations of Data-Poor Per- and Polyfluoroalkyl Substances (PFAS) using Gas Chromatography Coupled with Mass Spectrometry” (Toxics, 2023).
Where “and” joins values, the source holds several entries; their conditions need not be identical. Identical values can stand only once. Like-named read-outs stand apart in the source and are kept apart here.

What was measured:
human plasma [1] = assay: Chemical stability in plasma over the UC assay time course (T5hr/T1hr); details: for PPB_Stab_Fail: flag for stability failure in the plasma protein binding assay (1 = fail, 0 = pass); for Fstable.Med: median fraction stable in plasma, UC assay Level4
Method: (§2) Three replicates were run per experiment, with 4NT included as a reference compound in each to evaluate assay performance. All PFAS and 4NT, prepared at a 3 mM working stock, were added to human plasma to achieve a final, thoroughly mixed assay concentration of 10 μM, incubated at 37 °C for 1 h with shaking. […] After UC, the aqueous fraction (AF; i.e., supernatant devoid of plasma proteins/lipoproteins/fatty acids) was collected and transferred to a new tube. The second aliquot maintained at 37 °C was collected (T5hr). At the relevant time points, each volume of sample was combined with 3 volumes of vigorously mixed ice-cold acetonitrile with the labeled IS and stored for 10 min at −20 °C prior to centrifugation at 12,000× g for 10 min at 4 °C. The supernatant was collected and stored at <−70 °C until quantitative analysis. […] Furthermore, chemical stability in plasma over the assay time course was assessed using the T1hr and T5hr samples.
(§3) Percent chemical remaining at the end of the UC assay (T5hr/T1hr) was used to remove unstable chemicals from further evaluation.

[2] = as above; details: both, human, plasma
Method: as §2, §3

[3] = Abiotic loss in negative controls of the hepatocyte clearance assay (cell-free media, metabolically inactivated hepatocytes); assay type: in vitro ADME
Outline: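 Test compound at 1 μM incubated at 37 °C with shaking in complete William's medium E, either cell-free or with metabolically inactivated hepatocytes, then quenched with ice-cold acetonitrile for quantitative analysis.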

human plasma [4] = assay: Ultracentrifugation (UC) plasma protein binding assay, fraction unbound in plasma (fup); details: for Fup.Med: median fraction unbound in plasma; for Fup.Med / Fup.point: UC assay Level4; for Fup.point: point estimate of fraction unbound in plasma
[5] = as above; details: both, human, plasma
human primary cells = details: cited from earlier work
[6] = test system: pooled human cryopreserved primary hepatocyte suspensions; details: legacy PFAS included for comparison; cited from earlier work
[7] = In vitro-in vivo extrapolation (IVIVE) to Css and administered equivalent dose (AED); parameters: species or system human; details: for Clhep: IVIVE, hepatocyte Clint scaled to whole-liver clearance; for AED: administered equivalent dose from LOEC and Css; for Fub: fub=fup/(B:P), Fub set to 1 if needed; for CLint: scaled with HPGL 110 mill cells/g, Vl 1596 g
Outline: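 Measured plasma protein binding (fup) and hepatocyte Clint served as IVIVE inputs to estimate human steady-state plasma concentration (Css). fup was converted to blood unbound fraction using blood:plasma partitioning, and Clint was scaled to whole-liver clearance (L/h). AEDs were derived by combining Css with published in vitro lowest-observed effective concentrations.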

human plasma [8] = details: legacy PFAS included for comparison; cited from earlier work
human plasma [9] = details: both, human, 10 μM; for PPB_Stab_Fail: plasma
Method: as §2, §3

in vitro [10] = details: both, human, plasma
Method: as §2, §3

human plasma [11] = details: both, human, 5 h, 10 μM
in vitro [12] = details: both, human, plasma; remark: listed apart in the source
[13] = test system: pooled human cryopreserved primary hepatocyte suspensions; assay: Hepatic metabolic stability (hepatocyte clearance) assay, substrate depletion; assay type: in vitro ADME
Outline: (§1)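 Pooled 50-donor human cryopreserved hepatocytes (50,000 cells/100 μL) incubated with 1 μM compound at 37 °C with shaking. Parent loss quantified against internal standards over time to T240 in triplicate; T½ and Clint (μL/min/million cells) from ln concentration vs time, corrected for abiotic loss in cell-free and inactivated-hepatocyte controls.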

[14] = as above; assay type: in vitro ADME, human; details: both sexes, human, hepatocytes
Outline: as §1

[15] = flag for stability failure in hepatocyte clearance assay controls (1 or Fst = fail, 0 = pass)
[16] = BioSeek lowest-observed effect concentration used for AED
[17] = minimum lowest-observed effect concentration, BioSeek platform
[18] = Assuming 1 mg/kg/day dose rate, BW 70 kg
[19] = human steady-state plasma concentration, assuming 1 mg/kg/day dosage

## NC(O)(C(F)(F)F)C(F)(F)F [2-Aminohexafluoropropan-2-ol]
Human plasma [1]; average of one UC run (run date in line above)
  Stability (T5hr/ T1hr), Run-specific Avg: 0.77 and 0.751
Human plasma [1]
  PPB_Stab_Fail: 0
  Fstable.Med: 0.225
Human plasma [1]; mean T5hr/T1hr ratio over all replicates and runs, plasma
  Mean Stability: 0.76
Human plasma [1]; single replicate of one UC run
  Stability (T5hr/ T1hr), replicates A, B, C: 0.60 and 0.78 and 0.93 and 0.61 and 0.77 and 0.88
[2]
  remaining at 5 h, 10 μM: 76%
[3]; [15]
  Hep_Stab_Fail: 1
Human plasma [4]; human plasma, 10 μM, ultracentrifugation, 37 °C
  fup: 1
Human plasma [4]
  Fup.Med: 0.867
  Fup.point: 0.963
Human plasma [4]; single replicate of one UC run (aqueous fraction / Time 5 hr)
  Fraction Unbound (fu), replicates A, B, C: 0.90 and 0.77 and 0.85
[5]; Fraction Unbound (fu), Run-specific Avg, average of one UC run (run date in line above)
  fraction unbound at 5 h, 10 μM: 0.993
[5]; Fraction Unbound (fu), replicates A, B, C, single replicate of one UC run (aqueous fraction / Time 5 hr)
  fraction unbound at 5 h, 10 μM: 1

## FC(F)C(F)(F)COCC1CO1 (stereo not shown) [((2,2,3,3-Tetrafluoropropoxy)methyl)oxirane]
Human plasma [1]
  PPB_Stab_Fail: 0
  Fstable.Med: 0.531
[2]
  remaining at 5 h, 10 μM: 66%
[3]; [15]
  Hep_Stab_Fail: 1
Human plasma [4]
  Fup.Med: 0.63
  Fup.point: 0.762
[5]; Mean fu, fraction unbound in human plasma, ultracentrifugation, some values based on eLOQ
  fraction unbound at 5 h, 10 μM: 0.841

## N.O=C(O)C(F)(F)C(F)(F)C(F)(F)C(F)(F)C(F)(F)C(F)(F)C(F)(F)F [Ammonium perfluorooctanoate (PFOA), Ammonium perfluorooctanoate, reference compound]
Human primary cells; [16]
  LOEC: 2.00 µM
Human primary cells; [17]
  LOEC: 2 µM
[6]
  In Vitro Clint: 0.27 μL/min/10^6 cells
[7]; [18]
  Css: 282.38 mg/L and 681.96 uM
[7]
  Clhep: 0.003 L/h
  AED: 0.0029 mg/kg/day
  Fub: 0.001091
  CLint: 47401.2 µL/min
[7]; [19]
  Css: 681.96 µM
[7]; human steady-state plasma concentration, assuming 1 mg/kg/day dosage, listed as PFOA
  Css: 682 µM
Human plasma [4]; fraction unbound in human plasma, used for IVIVE
  Mean fu: 0.0006
Human plasma [8]
  fup: 0.0006

## FC(F)(F)C(F)(C(F)(F)F)C(F)(F)C(F)(F)CC1CO1 (stereo not shown) [3-(Perfluoro-3-methylbutyl)-1,2-propenoxide]
Human plasma [9]; 5 h
  PPB_Stab_Fail: 1
[3]; both, human, 120 min, 1 μM
  Hep_Stab_Fail: 1
In vitro [10]
  remaining at 5 h, 10 μM: 0%

## OCC(F)(F)OC(F)(F)C(F)(F)OC(F)(F)CO [1H,1H,8H,8H-Perfluoro-3,6-dioxaoctane-1,8-diol]
Human plasma [9]; 1 h
  Time 1 hr, Run-specific Avg: 8416.46
Human plasma [9]; 5 h
  Fstable.Med: 0.999
  Mean Stability: 1.067
  Stability (T5hr/ T1hr), Run-specific Avg: 1.023
  Time 5 hr, Run-specific Avg: 8614.09
  PPB_Stab_Fail: 0
Human primary cells; [16]
  LOEC: 7.00 µM
Human primary cells; [17]
  LOEC: 7 µM
Human plasma [11]
  Aqueous Fraction, Run-specific Avg: 1857.99
  Fup.Med: 0.191
  Fup.point: 0.207
  fup: 0.2069
In vitro [12]; Fraction Unbound (fu)
  fraction unbound at 5 h, 10 μM: 0.188
In vitro [12]; Fraction Unbound (fu), Run-specific Avg
  fraction unbound at 5 h, 10 μM: 0.21
In vitro [12]; Mean Fu
  fraction unbound at 5 h, 10 μM: 0.207
In vitro [12]; Mean fu
  fraction unbound at 5 h, 10 μM: 0.207
[3]; 1 μM
  No Cells BkgdCl, Clearance: 3.324
[3]; both, human, 1 μM
  HT BkgdCl, Clearance: 0
[3]; both, human, 120 min, 1 μM
  Hep_Stab_Fail: 0
[3]; buffer
  half-life at 1 μM: 6.95 h
[3]; heat treated hepatocytes control, 0 vs 240 min
  HT BkgdCl, Slope: -0.0009212
[3]; no cells control, 0 vs 240 min
  No Cells BkgdCl, Slope: -0.00166
[7]; [18]
  Css: 0.13 mg/L and 0.43 uM
[7]
  Clhep: 20.549 L/h
  AED: 16.1536 mg/kg/day
  Fub: 0.3762
  CLint: 1179763 µL/min
[7]; [19]
  Css: 0.43 µM
[13]; hepatocyte time course
  Linear Regression Results, Best-Fit Values, Slope: -0.003361
[13]; human, s9
  Clint.1.Med: 0
[14]
  half-life at 1 μM: 3.44 h
[14]; Bkgd Adj Clint
  hepatocyte CLint at 1 μM: 6.72 µL/min/1e6 cells
[14]; Bkgd-Sub Clearance (µL/min/106 hepatocytes)
  hepatocyte CLint at 1 μM: 6.72 µL/min/1e6 cells
[14]; Bkgd_adj_Clint
  hepatocyte CLint at 1 μM: 6.72 µL/min/1e6 cells
[14]; In Vitro Clint
  hepatocyte CLint at 1 μM: 6.72 µL/min/1e6 cells
[14]; Linear Regression Results, Best-Fit Values, Clearance
  hepatocyte CLint at 1 μM: 6.72 µL/min/1e6 cells
[14]; Unadj Clint
  hepatocyte CLint at 1 μM: 6.72 µL/min/1e6 cells
[14]; Unadj in vitro Clint
  hepatocyte CLint at 1 μM: 6.72 µL/min/1e6 cells
